# Experimental data: US4980377A, “1-(aminophenyl)-2-aminopropanone derivatives” (Laboratoire L. Lafon, priority 1984, dated 1990)
# “Also recorded” adds a separate entry of the source. Structures can show the parent of a compound that is named as a salt.
# What was measured:
# [1] = Acute toxicity by intraperitoneal administration; assay type: in vivo, mouse; conditions: mouse, in vivo, ip; male mice
# Experimental: (§1) In the neuropsychopharmacological study which follows, a solution of CRL 41 153 in distilled water (pH 1.5) was administered intraperitoneally in a volume of 20 ml/kg to male mice and 5 ml/kg to male rats.
# male mice = experiment: Acute toxicity by intraperitoneal administration; assay type: in vivo, mouse; conditions: i.p.
# Experimental: as §1
# mice [2] = experiment: Overall behavior and reactivities in mice; assay type: in vivo, mouse; conditions: i.p.
# Experimental: as §1
# (§2) Groups of three animals are observed before and then 0.25 hour, 0.50 hour, 1 hour, 2 hours, 3 hours and 24 hours after the administration of CRL 41 153.
# rats [3] = experiment: Overall behavior and reactivities in rats; assay type: in vivo, rat; conditions: for Observed symptoms: i.p.
# Experimental: as §1, §2
# mice [4] = experiment: Interaction with apomorphine in mice; assay type: in vivo, mouse; conditions: gastric, apomorphine 16 mg/kg s.c.
# Experimental: Groups of 6 mice receive CRL 41 153 0.5 hour before the subcutaneous injection of 1 or 16 mg/kg of apomorphine.
# mice [5] = experiment: Spontaneous motility; assay type: in vivo, mouse; conditions: gastric
# Experimental: 0.5 hour after they have received CRL 41 153, the mice (6 per dose, 12 control animals) are placed in an actimeter, where their motility is recorded for 30 minutes.
# mice [6] = experiment: Interaction with barbital; assay type: in vivo, mouse; conditions: gastric
# Experimental: Half an hour after the administration of CRL 41 153, groups of 10 mice receive an intraperitoneal injection of barbital (220 mg/kg).
# rats [7] = experiment: Investigation of stereotype movements; assay type: in vivo, rat; conditions: i.p., compared with amphetamine 2 mg/kg, hydrochloride
# Experimental: Immediately after the intraperitoneal administration of CRL 41 194 or amphetamine, groups of 6 rats are placed in Plexiglass boxes (20×10×10 cm). The stereotype movements are graded from 0 to 3 every 10 minutes until they wear off.
# Groups of 6 rats receive an intraperitoneal injection of CRL 41 213, distilled water or amphetamine immediately before being placed in small cages, where their stereotype behavior is graded every 10 minutes until the effect wears off.
# [8] = Particular toxicity in grouped mice; conditions: mouse, ip
# Experimental: (§3) The number of dead animals is noted after 1 hour, 2 hours, 3 hours, 4 hours and 24 hours.
# mice [9] = experiment: Particular toxicity in grouped mice; conditions: mice
# Experimental: as §3
# dogs = experiment: Cardiovascular study in anesthetized dogs; assay type: in vivo, dog
# In short: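 Nembutal-anaesthetized dogs (~14 kg) given CRL 41 194 (n=2) or CRL 41 221 (n=4) intraduodenally at successive 0.1, 0.5, 1, 2.5, 5 and 10 mg/kg doses. Blood pressure, heart rate, femoral and vertebral flow, rectal temperature measured; skin colour observed, plus bile colour (CRL 41 194).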
# [10] = system: cellular and humoral immunity; experiment: Test for cells forming lysis areas; conditions: in vivo
# [11] = system: cellular and humoral immunity; experiment: Delayed hypersensitivity to the red blood corpuscles of sheep; assay type: in vivo
# man = experiment: Clinical study: treatment of depressions; assay type: in vivo, human
# humans = experiment: Clinical study: vasodilator; assay type: in vivo, human
# Text: In the treatment of diseases associated with the blood circulation through the vessels.
# [12] = system: gravid White New Zealand female rabbits; experiment: Teratogenicity in gravid White New Zealand rabbits; assay type: in vivo, rabbit; conditions: day 5 to day 18 of gestation; for Affected foetuses, %: normal limit 1.5%
# In short: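 Fetuses harvested by cesarean on gestation day 29 were scored for number and for any malformation (limb blockade, anury, tail or skull defects, exencephaly).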
# [13] = pH of solutions in distilled water; assay type: physicochemical; conditions: administered solution in distilled water, concentration not given
# Experimental: The neuropsychopharmacological study was undertaken according to the procedures described above for CRL 41 153, CRL 41 213 being adminstered intraperitoneally, in solution in distilled water, in a volume of 20 ml/kg to male mice and a volume of 5 ml/kg to male rats, and the pH of the injected solution varying with the concentration of CRL 41 213 according to the data given in Table II below.
# CNS = experiment: Neuropsychopharmacological profile as a whole; assay type: in vivo, mice and rats; conditions: conclusion of the tests
# Experimental: as §1
# immunity = experiment: Immunological study (overall); conditions: in vivo; hydrochloride
# [14] = anesthetized dogs, intraduodenal
# [15] = dogs, after product, isoprenaline 10 μg/kg
# [16] = dogs, after product, norepinephrine 2 μg/kg
smiles,measurement,setting,value
"CC(C)NC(C)C(=O)c1cc(Cl)c(N)c(Cl)c1 (centres unmarked) [CRL 41 194, 1-(4-amino-3,5-dichlorophenyl)-2-isopropylaminopropanone hydrochloride]",LD50,[1],86 mg/kg
same,LD0 (maximum non-lethal dose),male mice,greater than 32 mg/kg
same,Observed symptoms,mice [2]; 0.25 mg/kg,weak excitation 24 hours after administration
same,Observed symptoms,mice [2]; 1 mg/kg,weak excitation 24 hours after administration
same,Observed symptoms,mice [2]; 4 mg/kg,weak excitation and an increase in the reactivity to touch about 24 hours after administration
same,Observed symptoms,"mice [2]; 16 mg/kg, hydrochloride",weak excitation 24 hours after administration; also recorded: an increase in the reactivity to touch for 24 hours; also recorded: dyspnea for 3 hours; also recorded: mydriasis for 2 hours (at a maximum 1 hour after administration); also recorded: dilation of the caudal veins for 2 hours
same,Stereotype movements (summary),rats [3]; dose not stated,stereotype movements (of moderate intensity)
same,Observed symptoms,rats [3]; 0.125 mg/kg,mydriasis for 2 hours (at a maximum 0.5 hour after administration)
same,Observed symptoms,rats [3]; 0.5 mg/kg,dyspnea for 0.5 hour
same,Observed symptoms,"rats [3]; 2 mg/kg, hydrochloride",mydriasis at a maximum 0.5 hour after administration; also recorded: dyspnea for 2 hours
same,Observed symptoms,"rats [3]; 8 mg/kg, hydrochloride",piloerection for 1 hour; also recorded: mydriasis for 2 hours (at a maximum 0.5 hour after administration); also recorded: dyspnea for 2 hours
same,Effect on hypothermia induced by apomorphine,mice [4],"as from a dose of 2 mg/kg, administered gastrically, CRL 41 194 opposes the hypothermia"
same,Effect on righting behavior and stereotypies induced by apomorphine,mice [4],without modifying the righting behavior and the stereotypies
same,Spontaneous motor activity,mice [5],"At the strongest dose administered gastrically (32 mg/kg), CRL 41 194 slightly reduces the spontaneous motor activity of mice"
same,Duration of the sleep induced by barbital,mice [6],"At the strongest dose administered gastrically (32 mg/kg), CRL 41 194 reduces the duration of the sleep induced by barbital in mice"
same,Stereotype movements,rats [7],"At the strongest dose used (16 mg/kg), CRL 41 194 causes the appearance of stereotype movements; also recorded: The intensity of the effect obtained with 16 mg/kg is slightly lower than that obtained with 2 mg/kg of amphetamine"
same,LD50,[8]; grouped mice,27 mg/kg
same,selectivity ratio,[8]; in vivo,3.19
same,LD50,[8]; isolated mice,86 mg/kg
same,Particular toxicity to grouped mice,mice [9],more toxic to grouped mice than to isolated mice
same,Vasodilator (conclusion),dogs,good vasodilator
same,Effect on hypertension induced by norepinephrine,dogs; anesthetized dogs,slightly reduced
same,Effects of isoprenaline on the blood pressure,dogs; anesthetized dogs,reduced as regards the blood pressure
same,Rectal temperature,dogs; anesthetized dogs,the rectal temperature and skin temperature rose
same,Skin temperature,dogs; anesthetized dogs,the rectal temperature and skin temperature rose
same,Effects of isoprenaline on the heart rate,"dogs; anesthetized dogs, after accumulated dose of 19.1 mg/kg intraduodenal",not modified as regards the heart rate
same,Blood pressure,dogs; [14],A drop in the diastolic blood pressure is observed at 5 mg/kg
same,Differential blood pressure,dogs; [14],an increase in the differential blood pressure as from the smallest doses
same,Femoral flow,dogs; [14],"At 0.5 mg/kg, the femoral flow increases"
same,Heart rate,dogs; [14],"At 0.5 mg/kg, the femoral flow increases at the same time as the heart rate"
same,Respiration,dogs; [14],Both dogs received respiratory stimulation
same,Vertebral flow,dogs; [14],increases the vertebral flow as from a dose of 0.1 mg/kg
same,Diastolic blood pressure after isoprenaline,dogs; [15],64 mm Hg
same,Diastolic blood pressure before isoprenaline,dogs; [15],126 mm Hg
same,Heart rate after isoprenaline,dogs; [15],262 beats/minute
same,Systolic blood pressure after norepinephrine,dogs; [16],266 mm Hg
same,Systolic blood pressure before norepinephrine,dogs; [16],208 mm Hg
same,Activity in the test for cells forming lysis areas,[10],active on the cellular and humoral immunity
same,Activity on the delayed hypersensitivity reaction,[11],active on the cellular and humoral immunity
same,Result in the treatment of depressions,man,excellent results on man in the treatment of depressions at a dose of 3×5 mg per day
same,Vasodilator in human clinical use,humans,very active as a vasodilator
same,"Affected foetuses, number",[12]; 5 mg/kg daily,1
same,Total foetuses (live),[12]; 5 mg/kg daily,95
same,"Affected foetuses, %",[12]; 5 mg/kg daily,1.10%
same,"Affected foetuses, number",[12]; 10 mg/kg daily,0
same,Total foetuses (live),[12]; 10 mg/kg daily,91
same,"Affected foetuses, %",[12]; 10 mg/kg daily,0%
same,pH,[13],4.5
same,Antidepressant effects (overall),CNS,is an antidepressant
same,Immunological effect (overall),immunity,immunostimulant or immunomodulating effects; also recorded: beneficial immunological properties; also recorded: behaves as an immunomodulating agent
